Results: publication PMC9405524, “Pre‐steady‐state kinetics and solvent isotope effects support the “billiard‐type” transport mechanism in Na ^+‐translocating pyrophosphatase” (Protein Science : A Publication of the Protein Society, 2022)

Biological target: T1, Tm‐mPPase (Thermotoga maritima membrane pyrophosphatase) (Thermotoga maritima, UniProt Q9S5X0)
T1 construct: gene hppA; recombinant in E. coli C41(DE3), assayed in inverted membrane vesicles; homodimer, subunit mass 77 kDa
T1 sequence (Q9S5X0 1-726): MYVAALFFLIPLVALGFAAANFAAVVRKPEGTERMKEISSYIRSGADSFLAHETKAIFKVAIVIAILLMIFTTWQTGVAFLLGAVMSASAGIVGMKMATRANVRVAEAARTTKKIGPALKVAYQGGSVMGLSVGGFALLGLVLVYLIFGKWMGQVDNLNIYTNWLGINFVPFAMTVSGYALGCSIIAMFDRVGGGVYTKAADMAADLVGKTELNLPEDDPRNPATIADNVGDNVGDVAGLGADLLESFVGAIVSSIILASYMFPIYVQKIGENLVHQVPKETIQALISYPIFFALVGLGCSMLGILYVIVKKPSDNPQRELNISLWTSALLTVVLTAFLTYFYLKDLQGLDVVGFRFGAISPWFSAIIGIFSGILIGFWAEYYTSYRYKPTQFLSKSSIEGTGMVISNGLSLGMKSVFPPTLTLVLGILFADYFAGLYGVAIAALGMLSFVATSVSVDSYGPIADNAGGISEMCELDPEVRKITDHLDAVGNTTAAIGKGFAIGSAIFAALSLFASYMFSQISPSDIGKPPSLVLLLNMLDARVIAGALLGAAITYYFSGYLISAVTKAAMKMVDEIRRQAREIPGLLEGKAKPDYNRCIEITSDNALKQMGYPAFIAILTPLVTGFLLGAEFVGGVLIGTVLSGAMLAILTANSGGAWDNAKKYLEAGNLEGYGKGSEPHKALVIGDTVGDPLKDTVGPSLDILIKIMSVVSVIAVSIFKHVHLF
Test: inhibition of PPi hydrolysis, active-site titration in inverted membrane vesicles, Pi analyzer
Assay type: biochemical
Conditions: 25°C, pH 7.2, 5 mM MgCl2, 100 mM NaCl, no K+, 8 μM PPi; competitive; tight-binding fit; apparent, not corrected for substrate; read-out: K i ^app

NC(P(=O)(O)O)P(=O)(O)O [AMDP]
Ki: 5 ± 2 nM
